Assay results published in patent US12527779B2, “Prostaglandin E2 (PGE2) EP4 receptor antagonists” (Domain Therapeutics, priority 2019, dated 2026).
Several values for one entry are separate records, joined by “and”; a condition that tells them apart may be missing. Identical values can stand only once.

System: MCA205 tumor cells
Test: In vivo anti-tumoral activity of Example 166 in a MCA205 tumor model
Parameters: species or system C57BL/6 mice
Description: Sarcoma MCA205 tumor cell line was cultured in vitro in DMEM supplemented with 10% FBS, 1% Penicillin-Streptomycin, 1 mM HEPES. Before inoculation in mice, cell viability was assessed by flow cytometry analysis and viable cell gating. A cell suspension was prepared according to the viable cell count.
Female C57BL/6 mice were inoculated subcutaneously in the right flank region with MCA205 tumor cells (0.5×10^6) in 0.1 ml of PBS for tumor development on day 1. Tumor volumes were measured thrice per week in two dimensions using a caliper, and the volume was expressed in mm^3 using the formula: “V=(L×W×W)/2”, where V is tumor volume, L is tumor length (the longest tumor dimension) and W is tumor width (the longest tumor dimension perpendicular to L). When the mean tumor size reached approximately 80 mm^3, mice were randomly allocated into groups (10 mice per group) and treated with or without an anti-PD-1 antibody (RPM1-14, 5 mg/kg, ip, on days 1, 4, 7, 10), with or without the compound of Example 166 (30 or 100 mg/kg, po, QD, 5% DMSO/95% (10% w/v solution of HP-3-CD in water) v/v) for 23 days).
Animals were checked daily for morbidity and mortality. During routine monitoring, the animals were checked for any effects on tumor growth and treatments on behavior such as mobility, food and water consumption, body weight gain/loss (body weights were measured thrice per week), eye/hair matting and any other abnormalities.

## C[C@H](NC(=O)C1(N2CC[C@@H](Oc3cccc(C(F)(F)F)c3)C2)CC1)c1ccc(C(=O)O)cc1.Cl [Example 166, 4-[(1S)-1-[[1-[(3R)-3-[3-(Trifluoromethyl)phenoxy]pyrrolidin-1-yl]cyclopropane-1-carbonyl]amino]ethyl]benzoic acid, hydrochloride]
Example 166 30 mg/kg po QD + anti-PD1 antibody 5 mg/kg ip, day 1
  Tumor Growth Inhibition TGI (%): 0.1%
Example 166 30 mg/kg po QD + anti-PD1 antibody 5 mg/kg ip, day 3
  Tumor Growth Inhibition TGI (%): 8.3%
Example 166 30 mg/kg po QD + anti-PD1 antibody 5 mg/kg ip, day 6
  Tumor Growth Inhibition TGI (%): 30.6%
Example 166 30 mg/kg po QD + anti-PD1 antibody 5 mg/kg ip, day 8
  Tumor Growth Inhibition TGI (%): 47.4%
Example 166 30 mg/kg po QD + anti-PD1 antibody 5 mg/kg ip, day 10
  Tumor Growth Inhibition TGI (%): 58.6%
Example 166 30 mg/kg po QD + anti-PD1 antibody 5 mg/kg ip, day 13
  Tumor Growth Inhibition TGI (%): 55.7%
Example 166 30 mg/kg po QD + anti-PD1 antibody 5 mg/kg ip, day 15
  Tumor Growth Inhibition TGI (%): 49.3%
Example 166 30 mg/kg po QD + anti-PD1 antibody 5 mg/kg ip, day 17
  Tumor Growth Inhibition TGI (%): 52.2%
Example 166 30 mg/kg po QD, day 1
  Tumor Growth Inhibition TGI (%): −6.1%
Example 166 30 mg/kg po QD, day 3
  Tumor Growth Inhibition TGI (%): −6.3%
Example 166 30 mg/kg po QD, day 6
  Tumor Growth Inhibition TGI (%): −22.4%
Example 166 30 mg/kg po QD, day 8
  Tumor Growth Inhibition TGI (%): 9.8%
Example 166 30 mg/kg po QD, day 10
  Tumor Growth Inhibition TGI (%): 10.2%
Example 166 30 mg/kg po QD, day 13
  Tumor Growth Inhibition TGI (%): 6.4%
Example 166 30 mg/kg po QD, day 15
  Tumor Growth Inhibition TGI (%): 4.3%
Example 166 30 mg/kg po QD, day 17
  Tumor Growth Inhibition TGI (%): 10.8%
Example 166 100 mg/kg po QD + anti-PD1 antibody 5 mg/kg ip, day 1
  Tumor Growth Inhibition TGI (%): 1.4%
Example 166 100 mg/kg po QD + anti-PD1 antibody 5 mg/kg ip, day 3
  Tumor Growth Inhibition TGI (%): 12.2%
Example 166 100 mg/kg po QD + anti-PD1 antibody 5 mg/kg ip, day 6
  Tumor Growth Inhibition TGI (%): 34.3%
Example 166 100 mg/kg po QD + anti-PD1 antibody 5 mg/kg ip, day 8
  Tumor Growth Inhibition TGI (%): 50.2%
Example 166 100 mg/kg po QD + anti-PD1 antibody 5 mg/kg ip, day 10
  Tumor Growth Inhibition TGI (%): 66.6%
Example 166 100 mg/kg po QD + anti-PD1 antibody 5 mg/kg ip, day 13
  Tumor Growth Inhibition TGI (%): 70.4%
Example 166 100 mg/kg po QD + anti-PD1 antibody 5 mg/kg ip, day 15
  Tumor Growth Inhibition TGI (%): 67.3%
Example 166 100 mg/kg po QD + anti-PD1 antibody 5 mg/kg ip, day 17, hydrochloride
  Tumor Growth Inhibition TGI (%): 68.0% and 68.1%
Example 166 100 mg/kg po QD, day 1
  Tumor Growth Inhibition TGI (%): −0.7%
Example 166 100 mg/kg po QD, day 3
  Tumor Growth Inhibition TGI (%): 13.2%
Example 166 100 mg/kg po QD, day 6
  Tumor Growth Inhibition TGI (%): 12.1%
Example 166 100 mg/kg po QD, day 8
  Tumor Growth Inhibition TGI (%): 16.7%
Example 166 100 mg/kg po QD, day 10
  Tumor Growth Inhibition TGI (%): 25.7%
Example 166 100 mg/kg po QD, day 13
  Tumor Growth Inhibition TGI (%): 32.6%
Example 166 100 mg/kg po QD, day 15
  Tumor Growth Inhibition TGI (%): 23.6%
Example 166 100 mg/kg po QD, day 17, hydrochloride, 100 mg/kg
  Tumor Growth Inhibition TGI (%): 31.0%
